Experimental findings from patent US10736898B2, “Positive allosteric modulators of the muscarinic acetylcholine receptor M4” (Vanderbilt University, priority 2017, dated 2020) are described below.

For one data set, the target named is T1, Human M4 (Homo sapiens, UniProt P08173).
T1 construct: expressed in transfected cells
T1 sequence (P08173 1-479): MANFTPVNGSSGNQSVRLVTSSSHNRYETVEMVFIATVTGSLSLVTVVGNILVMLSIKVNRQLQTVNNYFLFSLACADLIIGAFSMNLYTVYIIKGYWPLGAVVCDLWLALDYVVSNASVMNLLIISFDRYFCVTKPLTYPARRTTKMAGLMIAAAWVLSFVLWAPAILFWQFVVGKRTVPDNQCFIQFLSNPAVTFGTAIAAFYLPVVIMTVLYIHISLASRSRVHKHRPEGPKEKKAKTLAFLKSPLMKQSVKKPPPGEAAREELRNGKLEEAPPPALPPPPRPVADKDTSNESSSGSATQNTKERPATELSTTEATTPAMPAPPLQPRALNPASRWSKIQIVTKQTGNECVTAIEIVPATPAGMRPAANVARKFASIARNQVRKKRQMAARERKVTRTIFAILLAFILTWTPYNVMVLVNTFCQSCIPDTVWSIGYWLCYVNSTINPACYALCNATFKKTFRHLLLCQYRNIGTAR
Description: mAChR M4 cell-based functional assay (calcium flux, potentiation of EC20 acetylcholine response). (In general: Calcium flux is commonly read through the fluorescence of an indicator in the cells.)

Data set [1] relates to 68 primary molecular targets. Description: Eurofins LeadProfilingScreen (binding). Particulars: at 10 μM (binding); 68 targets. An excerpt: The screen includes 68 primary molecular targets, including several CNS targets recommended by the EMEA to evaluate drug dependence potential.
The nature of the next data set: Rat Fu (plasma). Format: in vitro ADME. As for the experimental part: (§1) Compound 1 was evaluated in several well-known in vitro assays to investigate both metabolism and pharmacokinetics. Bidirectional permeability/efflux was determined in MDCK-MDR1 cells, which originate from transfection of Madin Darby canine kidney (MDCK) cells with the MDR1 gene. These assays were performed according to known methods as generally described in the following references: Conde-Ceide et al. ACS Med. Chem. Lett. 2015, 6, 716-720; Morris et al. J. Med. Chem. 2014, 57, 10192-10197; and Bubser et al. ACS Chem. Neurosci. 2014, 5, 920-942.

The nature of the next data set: Dog Fu (plasma). The data set is classed as in vitro ADME. As for the experimental part: as §1
A further data set can be described thus: Rat CLint. The data set is classed as in vitro ADME. As for the experimental part: as §1
Another data set is described as follows: Dog CLint. The data set is classed as in vitro ADME. Here is the method: as §1
Another data set is described as follows: Human CLint. The data set is classed as in vitro ADME. As for the experimental part:
as §1

The nature of data set [2]: In vivo pharmacokinetics in rats (IV and PO). As for the experimental part: (§2) Compound 1 was evaluated in several in vivo studies to investigate its metabolism and pharmacokinetics.
Male Sprague-Dawley rats (n=2) weighing around 300 g were purchased from Harlon Laboratories (Indianapolis, Ind.) and implanted with catheters in the carotid artery and jugular vein. For intravenous (IV) administration, male Sprague-Dawley rats (n=2) were each administered a single 0.2 mg/kg dose of the test article via a jugular cannula and then blood samples were collected via a carotid artery catheter at 0.033, 0.117, 0.25, 0.5, 1, 2, 4, 7, 12, and 24 hours post-dosing from each animal. For oral (PO) administration, fasted male Sprague-Dawley rats (n=2) were each administered a single 3 mg/kg dose of the test article via oral gavage and then blood samples were collected via a carotid artery catheter at 0.25, 0.5, 1, 2, 4, 7, 12, and 24 hours post-dosing from each animal. Upon sampling, blood was collected into chilled, EDTA-fortified tubes and immediately placed on wet ice. Samples were then centrifuged for 10 minutes at 3500 rcf (at 4° C.) to obtain plasma. The plasma samples were stored at −80° C. until analysis. During the analysis, the samples were thawed on bench at room temperature and 20 μL was transferred to 96-well plate. 120 μL of 50 nM carbamazepine in acetonitrile was added to the plasma sample to precipitate the protein and provide the internal standard. After vortex and centrifugation, 75 μL of supernatant was transferred to another 96-well plate that contained 75 μL of water. 10 μL of the diluted supernatant was injected onto an AB Sciex 4000 or 5500 LC-MS/MS system for quantitation. The detection range for analyte was 0.5 to 5000 ng/mL utilizing a quadratic curve with 1/x^2 weighting. Sciex Analyst 1.4.2 software was used for data acquisition and quantitation. Pharmacokinetic parameters were determined from individual animal data using non-compartmental analysis (Model 201) in WinNonlin (v5.3, Pharsight Corp., Mountain View, Calif.).

Data set [3] is described as follows: Rat brain:plasma distribution. Format: in vivo. As for the experimental part:
as §2

Description for Human M4: Human M4 cDNA, along with the chimeric G protein Gqi5, were transfected into Chinese hamster ovary (CHO-K1) cells purchased from the American Type Culture Collection using commercially available Lipofectamine 2000 transfection reagent (Dalby, B. et al., Methods (2004) 33(2), 95-103). hM4-Gqi5 cells were grown in Ham's F-12 medium containing 10% heat-inactivated fetal bovine serum (FBS), 20 mM HEPES, 50 μg/mL G418 sulfate (CAS #108321-42-2), and 500 μg/mL Hygromycin B. rM4-Gqi5 cells were grown in DMEM containing 10% heat-inactivated FBS, 20 mM HEPES, 400 μg/mL G418 sulfate, and 500 μg/mL Hygromycin B.
For high throughput measurement of agonist-evoked increases in intracellular calcium, CHO-K1 cells stably expressing muscarinic receptors were plated in growth medium lacking G418 sulfate and hygromycin at 15,000 cells/20 μL/well in Greiner 384-well black-walled, tissue culture (TC)-treated, clear-bottom plates (VWR). Cells were incubated overnight at 37° C. and 5% CO2. The next day, cells were washed using an ELX 405 (BioTek) with assay buffer; the final volume was then aspirated to 20 μL. […] Dye was removed by washing with the ELX 405 and the final volume was aspirated to 20 μL. Compound master plates were formatted in an 11 point concentration-response curve (CRC) format (1:3 dilutions) in 100% DMSO with a starting concentration of 10 mM using a BRAVO liquid handler (Agilent). Test compound CRCs were then transferred to daughter plates (240 nL) using the Echo acoustic plate reformatter (Labcyte, Sunnyvale, Calif.) and then diluted into assay buffer (40 μL) to a 2× stock using a Thermo Fisher Combi (Thermo Fisher Scientific, Waltham, Mass.).
Calcium flux was measured using the Functional Drug Screening System (FDSS) 6000 or 7000 (Hamamatsu Corporation, Tokyo, Japan) as an increase in the fluorescent static ratio. Compounds were applied to cells (20 μL, 2×) using the automated system of the FDSS at 2-4 seconds into the protocol and the data were collected at 1 Hz. At 144 seconds, 10 μL of an EC20 concentration of the muscarinic receptor agonist acetylcholine was added (5×), followed by the addition of 12 μL of an EC80 concentration of acetylcholine at the 230 second time point (5×). Agonist activity was analyzed as a concentration-dependent increase in calcium mobilization upon compound addition. Positive allosteric modulator activity was analyzed as a concentration-dependent increase in the EC20 acetylcholine response. […] Antagonist activity was analyzed as a concentration-dependent decrease in the EC80 acetylcholine response. Concentration-response curves were generated using a four-parameter logistical equation in XLFit curve fitting software (IDBS, Bridgewater, N.J.) for Excel (Microsoft, Redmond, Wash.) or Prism (GraphPad Software, Inc., San Diego, Calif.).

With `Cc1nc(C)c2c(n1)sc1c(NCc3ccc(C(C)(C)O)cc3)ncnc12` [Compound 1, 2-(4-(((7,9-Dimethylthieno[2,3-d:4,5-d′]dipyrimidin-4-yl)amino)methyl)phenyl)propan-2-ol], the maximal response (Emax) at 30 µM on Human M4 (% ACh maximum at 30 μM, human M4) stood at 70.4%. The concentration giving a half-maximal response (EC50) on Human M4 (CHO-K1 cells with human M4 and Gqi5, increase in EC20 acetylcholine response) was determined as 1.25 µM. The “inhibition of each target in the LeadProfilingScreen” value in data set [1] was under 50%. The unbound share (fraction unbound) in “Rat Fu (plasma)” was found to be 0.024; in “Dog Fu (plasma)”, 0.072. Also, the CLint scaled in “Rat CLint” was 78 mL/min/kg; in “Dog CLint” it was 17 mL/min/kg; in “Human CLint” it was 26 mL/min/kg. Moreover, the “Rat oral F” value in [2] (3 mg/kg PO) is given as over 100%. The clearance in data set [2] (male, Sprague-Dawley, plasma, rat, IV 0.2 mg/kg, read-out: Rat CLp) was determined as 7.1 mL/min/kg. In data set [2] (male, Sprague-Dawley, plasma, rat, IV 0.2 mg/kg, read-out: Rat Vss), the Vd amounted to 1.1 L/kg. In [2] (male, Sprague-Dawley, rat, plasma, read-out: Rat Elim. t1/2 (converted)), the half-life was 1.9 h. The Kp in data set [3] was 0.74. The same molecule yielded a Kp uu in data set [3] (unbound) of 0.5.

The term Emax denotes the maximal effect, on the per cent scale that the assay sets. For orientation: EC50 means the midpoint of the concentration-response curve. The term fraction unbound denotes the share of the substance not bound to proteins or other matrix. As usually defined, the CLint scaled is the capacity of the preparation to metabolise the compound, expressed as a volume cleared per time. A higher CLint scaled goes with rapid turnover. One may read the Kp as the ratio of the level in a tissue or fluid to that in plasma or blood.
